According to patent US20230137927A1, “INTERFERON TAU AS ANTIVIRAL THERAPY” (priority 2020, published 2023):
pEC50, pIC50: −log10 of the molar value. Read-outs that look alike come from different tables or passages of the source.

What was measured:
hCoV-229E = hCoV-229E CPE assay; assay type: cell-based; details: Human coronavirus 229E
hCoV-OC43 = assay: HCoV OC43 CPE assay in Huh7 cells; assay type: cell-based
[1] = tested on: SARS CoV-2 (USA_WA1/2020); assay: SARS-CoV-2 CPE assay in Vero E6 cells; assay type: cell-based; details: Severe acute respiratory syndrome coronavirus 2, Vero C1008, reference compounds in the same assay
Huh7 cells = assay: Cytotoxicity in parallel with OC43 CPE assay, without virus; details: Huh7 cells; no virus; reference compounds
[2] = as above; details: human
YFV 17D = assay: microbe, parasite or virus in culture; assay type: cell-based; details: Yellow fever virus
[3] = tested on: DENV type 2 Rluc-NGC strain; assay: microbe, parasite or virus in culture; assay type: cell-based; details: Dengue virus, Vero
[4] = Betacoronavirus 1, OC43, Huh-7, read-out: Average Inhibition (%)

SMILES: CCN(CC)CCCC(C)Nc1ccnc2cc(Cl)ccc12 (stereo not drawn) [Chloroquine]
- pIC50 (hCoV-229E; MRCS cells, data not shown, read-out: IC50): 5.66

SMILES: CCC(CC)COC(=O)[C@H](C)N[P@](=O)(OC[C@H]1O[C@@](C#N)(c2ccc3c(N)ncnn23)[C@H](O)[C@@H]1O)Oc1ccccc1 [Remdesivir]
- pIC50 (hCoV-229E; 72 h): 7.64
- pEC50 (hCoV-OC43; Betacoronavirus 1, OC43, Huh-7): 7.38
- inhibition at 0.000457 µM (hCoV-OC43; [4]): -4.12%
- inhibition at 0.001372 µM (hCoV-OC43; [4]): -0.1%
- inhibition at 0.004115 µM (hCoV-OC43; [4]): 1.54%
- inhibition at 0.01235 µM (hCoV-OC43; [4]): 8.25%
- inhibition at 0.03704 µM (hCoV-OC43; [4]): 30.4%
- inhibition at 0.11111 µM (hCoV-OC43; [4]): 83.4%
- inhibition at 0.33333 µM (hCoV-OC43; [4]): 79.5%
- inhibition at 1 µM (hCoV-OC43; [4]): 80.3%
- pIC50 [1]: 5.41
- CC50 (Huh7 cells): 17.2 µM
- viability at 7 days, 0.046 µM [2]: 100%
- viability at 7 days, 0.137 µM [2]: 102%
- viability at 7 days, 0.412 µM [2]: 104%
- viability at 7 days, 1.235 µM [2]: 102%
- viability at 7 days, 3.704 µM [2]: 86.9%
- viability at 7 days, 11.11 µM [2]: 56.8%
- viability at 7 days, 33.33 µM [2]: 36.9%
- viability at 7 days, 100 µM [2]: 21.8%

SMILES: CCN(CCO)CCCC(C)Nc1ccnc2cc(Cl)ccc12 (stereo not drawn) [Hydroxychloroquine]
- pIC50 [1]: 5.72

SMILES: NC(=O)c1ncn([C@@H]2O[C@H](CO)[C@@H](O)[C@H]2O)n1 [Ribavirin]
- pEC50 (YFV 17D; read-out: EC50 for YFV, FIG. 4B as described in Examples 3 & 4): 3.65
- pEC50 (YFV 17D; read-out: EC50 for YFV, FIG. 4B legend): 3.87
- pEC50 [3]: 4.49
- inhibition at 0.015 µM [3]: 14.9%
- inhibition at 0.046 µM [3]: 14.9%
- inhibition at 0.137 µM [3]: 10.8%
- inhibition at 0.412 µM [3]: 13.5%
- inhibition at 1.235 µM [3]: 31.1%
- inhibition at 3.704 µM [3]: 20.3%
- inhibition at 11.111 µM [3]: 24.3%
- inhibition at 33.333 µM [3]: 60.8%
- inhibition at 100 µM [3]: 98.7%
- inhibition at 300 µM [3]: 100%
- CC50 (in vitro): > 699 µM
